Common to all, as to format: in vivo
The test system of one assay is Zea mays. In words: greenhouse post-emergence herbicidal activity on crop plant corn (use examples). As to conditions: ZEAMX (corn, crop plant), 0.031 kg/ha, scale 0 to 100. The text has this: (§1) The seeds of the test plants were sown separately for each species. For the pre-emergence treatment, the active ingredients, which had been suspended or emulsified in water, were applied directly after sowing by means of finely distributing nozzles. The containers were irrigated gently to promote germination and growth and subsequently covered with transparent plastic hoods until the plants had rooted. This cover caused uniform germination of the test plants, unless this had been impaired by the active ingredients. For the post-emergence treatment, the test plants were first grown to a height of 3 to 15 cm, depending on the plant habit, and only then treated with the active ingredients which had been suspended or emulsified in water. For this purpose, the test plants were either sown directly and grown in the same containers, or they were first grown separately as seedlings and transplanted into the test containers a few days prior to treatment. Depending on the species, the plants were kept at 10-25° C. or 20-35° C., respectively. The test period extended over 2 to 4 weeks. During this time, the plants were tended, and their response to the individual treatments was evaluated. Evaluation was carried out using a scale from 0 to 100. 100 means no emergence of the plants, or complete destruction of at least the aerial moieties, and 0 means no damage, or normal course of growth. A good herbicidal activity is given at values of at least 70 and a very good herbicidal activity is given at values of at least 85. The plants used in the greenhouse experiments were of the following species: [table]

The subject of another assay is Stellaria media. In words: greenhouse post-emergence herbicidal activity (use examples). The note with it: STEME, 0.031 kg/ha, scale 0 to 100.
Excerpt: as §1

In a further assay the test system is Poa annua. Described as above. As to conditions: POAAN, 0.031 kg/ha, scale 0 to 100.
Excerpt: as §1

For a further assay, the system named is Thlaspi arvense. The description is as above. The note with it: THLAR, 0.031 kg/ha, scale 0 to 100.
Excerpt: as §1

In patent US10167297B2, “Substituted pyridine compounds having herbicidal activity” (BASF SE, priority 2014, dated 2019) one finds plant injury and Herbicidal activity data, which are given here for 1 molecule.

As usually defined, the plant injury is the degree to which the test organism was suppressed or injured, in per cent. `CCC(=O)N(C)c1c(Cl)ccc(C2=C(O)c3ncccc3C(C)(C)S2(=O)=O)c1Cl` [Compound I-10, N-[2,6-dichloro-3-(8-hydroxy-5,5-dimethyl-6,6-dioxo-thiopyrano[4,3-b]pyridin-7-yl)phenyl]-N-methyl-propanamide] had a plant injury at 31 g/ha with Zea mays of 30%. In addition, the Herbicidal activity with Stellaria media stood at 100; in the assay with Poa annua it was 98; with Thlaspi arvense, 100.
